Data as given in patent US9067967B2, “Peptides useful in the treatment and care of the skin and mucous membranes and their use in cosmetic or pharmaceutical compositions” (LIPOTEC, S.A., priority 2011, dated 2015).

Key:
Assay type in all cases: cell-based
human AQP-3 promoter = assay: Modulation of the human AQP-3 promoter activity (luciferase reporter in stably transfected keratinocytes); settings: peptide at 0.5 mg/mL, 16-24 hours; normalized to negative control (carrier = 100%)
Method: The modulation capacity of the promoter of the AQP-3 gene was evaluated in a cell line of keratinocytes stably transfected with the luciferase gene under the regulation of the human AQP-3 promoter. 20,000 to 30,000 cells per well were seeded and incubated for 24 hours in DMEM medium, after which the peptides of the invention were added at 0.5 mg/mL and were incubated for another 16-24 hours. The DMEM medium (carrier) was used as a negative control. The measurement of the promoter's activity was carried out using the Steady-Glo® Luciferase Assay System (PROMEGA) kit following the manufacturer's instructions. The luminescence values were read on a luminometer at 630 nm and the activity of the promoter was determined, which was normalized with regards to the values of the negative control.

[1] = test system: human dermal fibroblasts (HDFa); assay: Stimulation of collagen type I synthesis in human dermal fibroblasts (ELISA); settings: 48 hours, carrier = 0%
Method: The ability of the peptides of the invention to stimulate collagen type I synthesis in human dermal fibroblasts (HDFa, Cascade Biologics) was evaluated in culture using ELISA (enzyme-linked immunosorbent assay). The fibroblasts grew in M106 supplemented with specific factors for their growth. 50,000 cells per well were seeded and incubated at 37° C., 5% CO2, with humidified air. After 24 hours the peptides of the invention were added, and were incubated for another 48 hours, after which the supernatants were collected.
96-well plates were covered with 50 μL of a standard bovine collagen type I (Sigma) or with the previously collected supernatants. The collagen was absorbed onto the wells throughout the night at 4° C. in a humidified atmosphere. The plates were washed three times and were blocked for one hour with 3% bovine serum albumin, after which they were incubated with a primary anti-collagen type I anti-body (Sigma) for 2 hours. Subsequently, the secondary antibody, goat anti-mouse IgG-HRP (Molecular Probes) was added. The plates were incubated with the […] for 30 minutes under stirring and the reaction was stopped by adding 3 M of H2SO4. The absorbance was measured at 490 nm in a plate reader (Genios, Tecan) and the concentration of collagen was determined by comparing it with a standard linear regression line.

AQP-3 gene = assay: Relative quantification of AQP-3 mRNA by quantitative real time PCR in human epidermal keratinocytes; settings: 0.1 mg/mL, 16-24 hours; normalized to untreated cells (carrier = 100%)
Method: The expression levels of the gene AQP-3 were measured by PCR in quantitative real time. A human keratinocyte cell line from adult skin was incubated at a density of 10,000 to 20,000 cells per well in EpiLife™ medium (Cascade Biologics) for 3-5 days and they were subsequently incubated with the peptides of the invention for another 16-24 hours, after which the cells were lysed and the RNA was extracted. The PCR was carried out in quantitative real time using the Taqman® Gene Expression Cells-to-CT (Applied Biosystems) kit according to the manufacturer's instructions and with the appropriate probes (TaqMan® Hs00185020_m1 probe for the AQP-3 gene and Taqman® Hs99999901_s1 probe for the eukaryotic ribosomal subunit 18S, the endogenous control of expression) and the values were normalized with regards to the basal levels of AQP-3 mRNA of the untreated cells (carrier).

[2] = test system: human epidermal keratinocytes; assay: Proliferation of human epidermal keratinocytes (calcein-AM fluorescence); settings: 24 hours, carrier = 0%
Method: Cell proliferation was evaluated by a fluorescence-based cell viability method, in which the live cells are distinguished from the dead cells by the enzymatic conversion of calcein-AM to its fluorescent form.
Human keratinocytes were cultivated in DMEM supplemented with fetal bovine serum (FBS, Cultek) until confluence is achieved. The cells were then separated using trypsin and were seeded in 96-well plates. After 24 hours of incubation in DMEM at 37° C. in a humidified atmosphere at 5% CO2 a fresh medium was added with different concentrations of the product of the invention. Cells treated with DMEM as a negative control were used. The cells were incubated for another 24 hours under the same conditions and the medium was substituted by 100 μl of calcein-AM (Molecular Probes) at 0.4 μM diluted in phosphate buffered saline (PBS, Sigma). After 30 minutes of incubation at 37° C. the fluorescence was measured at excitation 485 nm 1 and emission 530 nm (λem) in a plate reader (Genios Tecan). The total growth percentage was calculated as T/C×100 wherein T is the fluorescence of the wells treated with the peptides of the invention and C the fluorescence of the control wells treated with DMEM.

Substance | Activity of the AQP-3 promoter (%) (human AQP-3 promoter) | other results
Ac-L-Ser-L-Pro-L-Ala-Gly-Gly-L-Gln-NH2 (Ac-SPAGGQ-NH2) [Ac-SEQ ID 8-NH2] | 152 | 
Ac-L-Ser-L-Pro-L-Ala-Gly-Gly-L-His-NH2 (Ac-SPAGGH-NH2) [Ac-SEQ ID 45-NH2] | 120 | 
Ac-L-Ser-L-Pro-L-Ala-Gly-Gly-L-Pro-NH2 (Ac-SPAGGP-NH2) [Ac-SEQ ID 10-NH2] | 135 | % Increase in collagen type I synthesis ([1]; 0.01 mg/mL): 36%; % Increase in collagen type I synthesis ([1]; 0.1 mg/mL): 58%; % relative quantity AQP-3 mRNA (AQP-3 gene): 200%; % Stimulation of proliferation ([2]; 0.16 mg/mL): 24%; % Stimulation of proliferation ([2]; 0.62 mg/mL): 28%; % Stimulation of proliferation ([2]; 2.50 mg/mL): 31%
Ac-L-Ser-L-Pro-L-Ala-L-Glu-Gly-Gly-NH2 (Ac-SPAEGG-NH2) [Ac-SEQ ID 6-NH2] | 124 | 
Ac-L-Ser-L-Pro-L-Ala-L-Glu-Gly-L-Gln-NH2 (Ac-SPAEGQ-NH2) [Ac-SEQ ID 5-NH2] | 121 | 
Ac-L-Ser-L-Pro-L-Ala-L-Glu-Gly-L-His-NH2 (Ac-SPAEGH-NH2) [Ac-SEQ ID 48-NH2] | 117 | 
Ac-L-Ser-L-Pro-L-Ala-L-Val-Gly-Gly-NH2 (Ac-SPAVGG-NH2) [Ac-SEQ ID 40-NH2] | 126 | 
Ac-L-Ser-L-Pro-L-Ala-L-Val-Gly-L-Gln-NH2 (Ac-SPAVGQ-NH2) [Ac-SEQ ID 39-NH2] | 133 | 
Ac-L-Ser-L-Pro-L-Ala-L-Val-Gly-L-Pro-NH2 (Ac-SPAVGP-NH2) [Ac-SEQ ID 49-NH2] | 116 | 
Ac-L-Ser-L-Val-L-Ala-Gly-Gly-Gly-NH2 (Ac-SVAGGG-NH2) [Ac-SEQ ID 38-NH2] | 156 | 
Ac-L-Ser-L-Val-L-Ala-Gly-Gly-L-Gln-NH2 (Ac-SVAGGQ-NH2) [Ac-SEQ ID 50-NH2] | 115 | 
Ac-L-Ser-L-Val-L-Ala-Gly-Gly-L-His-NH2 (Ac-SVAGGH-NH2) [Ac-SEQ ID 41-NH2] | 124 | 
Ac-L-Ser-L-Val-L-Ala-Gly-Gly-L-Pro-NH2 (Ac-SVAGGP-NH2) [Ac-SEQ ID 13-NH2] | 144 | 
Ac-L-Ser-L-Val-L-Ala-L-Glu-Gly-Gly-NH2 (Ac-SVAEGG-NH2) [Ac-SEQ ID 46-NH2] | 119 | 
Ac-L-Ser-L-Val-L-Ala-L-Glu-Gly-L-Gln-NH2 (Ac-SVAEGQ-NH2) [Ac-SEQ ID 12-NH2] | 138 | 
Ac-L-Ser-L-Val-L-Ala-L-Glu-Gly-L-His-NH2 (Ac-SVAEGH-NH2) [Ac-SEQ ID 58-NH2] | 112 | 
Ac-L-Ser-L-Val-L-Ala-L-Val-Gly-Gly-NH2 (Ac-SVAVGG-NH2) [Ac-SEQ ID 16-NH2] | 127 | 
Ac-L-Ser-L-Val-L-Ala-L-Val-Gly-L-Gln-NH2 (Ac-SVAVGQ-NH2) [Ac-SEQ ID 15-NH2] | 129 | % relative quantity AQP-3 mRNA (AQP-3 gene): 162%
Ac-L-Ser-L-Val-L-Ala-L-Val-Gly-L-Pro-NH2 (Ac-SVAVGP-NH2) [Ac-SEQ ID 17-NH2] | 121 | 

Substance | Activity of the AQP-3 promoter (%) (human AQP-3 promoter) | other results
Ac-L-Tyr-L-Pro-L-Ala-Gly-Gly-Gly-NH2 (Ac-YPAGGG-NH2) [Ac-SEQ ID 25-NH2] | 132 | 
Ac-L-Tyr-L-Pro-L-Ala-Gly-Gly-L-Gln-NH2 (Ac-YPAGGQ-NH2) [Ac-SEQ ID 43-NH2] | 122 | 
Ac-L-Tyr-L-Pro-L-Ala-Gly-Gly-L-Pro-NH2 (Ac-YPAGGP-NH2) [Ac-SEQ ID 26-NH2] | 114 | 
Ac-L-Tyr-L-Pro-L-Ala-L-Glu-Gly-Gly-NH2 (Ac-YPAEGG-NH2) [Ac-SEQ ID 23-NH2] | 125 | 
Ac-L-Tyr-L-Pro-L-Ala-L-Glu-Gly-L-Gln-NH2 (Ac-YPAEGQ-NH2) [Ac-SEQ ID 22-NH2] | 135 | % relative quantity AQP-3 mRNA (AQP-3 gene): 229%
Ac-L-Tyr-L-Pro-L-Ala-L-Glu-Gly-L-Pro-NH2 (Ac-YPAEGP-NH2) [Ac-SEQ ID 24-NH2] | 121 | 
Ac-L-Tyr-L-Pro-L-Ala-L-Val-Gly-Gly-NH2 (Ac-YPAVGG-NH2) [Ac-SEQ ID 29-NH2] | 125 | 
Ac-L-Tyr-L-Pro-L-Ala-L-Val-Gly-L-Gln-NH2 (Ac-YPAVGQ-NH2) [Ac-SEQ ID 28-NH2] | 129 | 
Ac-L-Tyr-L-Pro-L-Ala-L-Val-Gly-L-His-NH2 (Ac-YPAVGH-NH2) [Ac-SEQ ID 30-NH2] | 121 | 
Ac-L-Tyr-L-Pro-L-Ala-L-Val-Gly-L-Pro-NH2 (Ac-YPAVGP-NH2) [Ac-SEQ ID 31-NH2] | 122 | 
Ac-L-Tyr-L-Val-L-Ala-Gly-Gly-Gly-NH2 (Ac-YVAGGG-NH2) [Ac-SEQ ID 33-NH2] | 129 | 
Ac-L-Tyr-L-Val-L-Ala-Gly-Gly-L-Gln-NH2 (Ac-YVAGGQ-NH2) [Ac-SEQ ID 42-NH2] | 123 | 
Ac-L-Tyr-L-Val-L-Ala-Gly-Gly-L-His-NH2 (Ac-YVAGGH-NH2) [Ac-SEQ ID 34-NH2] | 136 | 
Ac-L-Tyr-L-Val-L-Ala-Gly-Gly-L-Pro-NH2 (Ac-YVAGGP-NH2) [Ac-SEQ ID 35-NH2] | 150 | 
Ac-L-Tyr-L-Val-L-Ala-L-Glu-Gly-Gly-NH2 (Ac-YVAEGG-NH2) [Ac-SEQ ID 56-NH2] | 112 | 
Ac-L-Tyr-L-Val-L-Ala-L-Glu-Gly-L-His-NH2 (Ac-YVAEGH-NH2) [Ac-SEQ ID 44-NH2] | 120 | 
Ac-L-Tyr-L-Val-L-Ala-L-Glu-Gly-L-Pro-NH2 (Ac-YVAEGP-NH2) [Ac-SEQ ID 32-NH2] | 135 | 
Ac-L-Tyr-L-Val-L-Ala-L-Val-Gly-Gly-NH2 (Ac-YVAVGG-NH2) [Ac-SEQ ID 36-NH2] | 120 | 
